Reference: patent US20260216348A1, “IRAK DEGRADATION AGENT AND USE THEREOF” (Increland, priority 2023, published 2026)
Read-outs that look alike come from different tables or passages of the source.

Legend:
[1] = system: R848-induced IL-6 secretion in human peripheral blood mononuclear cells (PBMCs); experiment: Inhibition of R848-induced IL-6 secretion in human PBMCs (IL-6 ELISA); format: cell-based; conditions: PBMC, R848 2.5 μg/mL, 20 h pre-incubation, 24 h stimulation
Summary of the method: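 Human PBMCs at 1.25×10^6 cells/mL were preincubated for 20 h at 37 °C with compound, starting at 1 μM in 4-fold dilutions. They were then stimulated with 2.5 μg/mL R848 for 24 h. Supernatant IL-6 was measured by ELISA at OD450 against a standard curve.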

[2] = Pharmacokinetic experiment on SD rats (iv and intragastric); format: in vivo; conditions: Sprague-Dawley, rat, plasma; for Cmax: read-out: Peak plasma concentration Cmax
Method: Pharmacokinetic experiment on SD rats: in this experiment, two administration modes: oral intragastric administration and tail vein injection were selected. Oral administration was performed at a dose of 5 mg/kg using the compounds of the present disclosure. The administration volume was 10 mL/kg. Prior to use, an appropriate amount of the drug was accurately weighed and first dissolved in dimethyl sulfoxide (DMSO). An appropriate amount of Solutol and H2O were then added in sequence at a final volume ratio of 5% DMSO, 10% Solutol and 85% H2O. The mixture was sonicated and vortexed to homogeneity to prepare a clear drug solution with a concentration of 0.5 mg/mL. Intravenous administration was performed at a dose of 1 mg/kg using the compounds of the present disclosure. The administration volume was 10 mL/kg. Prior to use, an appropriate amount of each drug was accurately weighed separately, followed by the sequential addition of a suitable volume of PEG 400 and Saline at a final volume ratio of 20% PEG 400 to 80% Saline. The mixture was sonicated and vortexed to homogeneity to prepare a clear drug solution with a concentration of 0.1 mg/mL.
6 SD rats, each with body weight of 180-220 g, were randomly grouped into 2 groups. The animals were fasted overnight with free access to water. For the first group, intragastric administration was performed, and 200 μL of blood was collected from the orbital venous plexus into anticoagulant tubes at 15 min, 30 min, 1 h, 2 h, 4 h, 6 h, 8 h and 24 h post-administration, respectively. Within one hour, the blood samples were centrifuged at 10000 rpm for 20 m at 4° C. (preserved on an ice box prior to centrifugation). The upper supernatant, i.e., plasma, was harvested and stored in a refrigerator at −20° C. for subsequent LC-MS/MS analysis. For the second group, intravenous administration was conducted, and 200 μL of blood was collected from the orbital venous plexus into anticoagulant tubes at 5 min, 15 min, 30 min, 1 h, 2 h, 4 h, 8 h and 24 h post-administration, respectively. Within one hour, the blood samples were centrifuged at 10000 rpm for 20 min at […] (preserved on an ice box prior to centrifugation). The upper supernatant, i.e., plasma, was harvested and stored in a refrigerator at −20° C. for subsequent LC-MS/MS analysis.

[3] = as above; format: in vivo; conditions: Sprague-Dawley, rat, plasma, po; for bioavailability: ig 10.00 mg/kg vs iv 1.00 mg/kg, read-out: Oral bioavailability Fobs; for AUC / AUC(0-inf) / Cmax: ig, 10.00 mg/kg; for Cmax: read-out: Peak plasma concentration Cmax
IMQ psoriasis model = experiment: IMQ (imiquimod)-induced psoriasis model; format: in vivo, BALB/c mice; conditions: QD, Mean ± SD, n = 7; for PASI Score d 6: Model 8.85 ± 1.66; for ΔSkin Thickness Change (μm) d 6: Model 80.95 ± 6.16
Method: Male BALB/c mice, aged 6-8 weeks, were randomly divided into 9 groups after 1 week of acclimatization: blank control group, imiquimod model group (IMQ group, corresponding to the model groups in FIGS. 1 and 2), clobetasol propionate cream group (CLO group), TYKI (BMS-986165) group, IRAK4 protein degrader KT-474 (from patent WO2020113233) group (100 mg/kg), and the compound of the present disclosure (at an appropriate dose), with 6-7 mice in each group. One day before modeling, the hair on the backs of the mice was removed with depilatory cream, with a depilated area of 2×2 cm^2. On the day of modeling, IMQ cream was used for modeling, and the corresponding drugs were administered intragastrically for treatment. The compound of the present disclosure (at an appropriate dose) was administered intragastrically once daily, and IMQ cream was applied to the hairless area on the back and left ear of mice 2 h after the first administration. […] The blank group and the IMQ group were administered with vehicle intragastrically twice daily (in the morning and evening), with an 8-h interval between the two intragastric administrations. At 2 h after the first intragastric administration, vaseline and IMQ cream were applied topically to the depilated back and ears of the mice, respectively. The dosage of IMQ cream administered to the depilated area on the back and the left ear was 80 mg and 10 mg, respectively, and the mice in each group were administered the cream for 5 consecutive days.
Reference was made to the Psoriasis Area and Severity Index (PASI) scoring criteria. The psoriasis, erythema, and thickness of skin lesions on the back were scored from 0 to 4 every morning from day 1 of modeling, with the scoring criteria as shown in Table 28. The 3 were added up to obtain a total score, i.e., a total PASI score. The ear thickness of the left ear of the mouse was measured using a digital vernier caliper three times every morning from day 1 of modeling, to obtain a mean value.

[4] = system: DSS-induced enteritis model; experiment: DSS-induced enteritis (colitis) model; format: in vivo, mice; conditions: po, QD, Model 10.33 ± 1.11, Mean ± SD, n = 7
From the text: The experimental mice were pre-acclimatized in the animal facility for one week; at the beginning of the experiment, the mice were given medication intragastrically daily according to their body weight. After the completion of intragastric administration in each group, mice had direct access to water bottles for free drinking. The blank group received normal water, while the other groups received pre-prepared DSS water. Each afternoon, the mice's abdomens were massaged to stimulate defecation, and one fecal pellet was collected onto a white porcelain plate. Fecal consistency was judged and recorded according to Table 30. The fecal occult blood qualitative test kit (Yuanye Biotechnology, #R24187-300T) was used to test for occult blood in feces and the results were interpreted according to Table 31.

SMILES	IC50 [1] [nM]	AUC ([2]; iv, 1.00 mg/kg) [µg·h/mL]	AUC(0-inf) ([2]; iv, 1.00 mg/kg) [µg·h/mL]	Cmax ([2]; iv, 1.00 mg/kg) [µg/mL]	bioavailability [3] [%]	AUC [3] [µg·h/mL]	AUC(0-inf) [3] [µg·h/mL]	Cmax [3] [µg/mL]	also measured
CN(C)c1cc2nn([C@H]3CC[C@H](CN4C[C@@H](n5cc6cc(C7CCC(=O)NC7=O)c(F)cc6n5)[C@@H](F)C4)CC3)cc2cc1NC(=O)c1cnn2cccnc12 (stereo partly drawn) [TM-241]	9.08	4.14 ± 1.29	4.22 ± 1.3	0.92 ± 0.124	35.2	14.2 ± 4.66	14.9 ± 4.69	1.65 ± 0.641	–
CN(C)c1cc2nn([C@H]3CC[C@H](CN4C[C@@H](F)[C@H](n5cc6cc(C7CCC(=O)NC7=O)ccc6n5)C4)CC3)cc2cc1NC(=O)c1cnn2cccnc12 (stereo partly drawn) [TM-244]	14.4	2.01 ± 0.361	2.44 ± 0.585	0.784 ± 0.126	54.2	13 ± 2.9	13.2 ± 2.96	1.33 ± 0.294	–
CN(C)c1cc2nn([C@H]3CC[C@H](CN4C[C@@H](n5cc6cc(N7CCC(=O)NC7=O)ccc6n5)[C@@H](F)C4)CC3)cc2cc1NC(=O)c1cnn2cccnc12 [TM-205]	3.78	–	–	–	–	–	–	–	PASI Score d 6 (IMQ psoriasis model; 3 mg/kg): 7.29 ± 1.99; ΔSkin Thickness Change (μm) d 6 (IMQ psoriasis model; 3 mg/kg): 65.71 ± 10.23 μm; PASI Score d 6 (IMQ psoriasis model; 10 mg/kg): 6.75 ± 1.28; ΔSkin Thickness Change (μm) d 6 (IMQ psoriasis model; 10 mg/kg): 52.62 ± 9.59 μm; PASI Score d 6 (IMQ psoriasis model; 30 mg/kg): 4.84 ± 0.80; ΔSkin Thickness Change (μm) d 6 (IMQ psoriasis model; 30 mg/kg): 53.10 ± 12.95 μm; DAI Score d 8 ([4]; 3 mpk): 4.86 ± 1.55; DAI Score d 8 ([4]; 10 mpk): 3.29 ± 1.67; DAI Score d 8 ([4]; 30 mpk): 2.71 ± 0.70
CN(C)c1cc2nn([C@H]3CC[C@H](CN4C[C@@H](F)[C@H](n5cc6cc(C7CCC(=O)NC7=O)c(F)cc6n5)C4)CC3)cc2cc1NC(=O)c1cnn2cccnc12 (stereo partly drawn) [TM-245]	4.02	2.91 ± 0.0628	2.98 ± 0.114	0.554 ± 0.0607	63.7	14.5 ± 1.42	19 ± 5.06	1.19 ± 0.0923	–
CN(C)c1cc2nn([C@H]3CC[C@H](CN4CC[C@@H](n5cc6cc(C7CCC(=O)NC7=O)c(F)cc6n5)[C@@H](F)C4)CC3)cc2cc1NC(=O)c1cnn2cccnc12 (stereo partly drawn) [TM-135]	4.53	1.17 ± 0.26	1.22 ± 0.333	0.79 ± 0.0659	–	–	–	–	bioavailability ([2]; po, ig 5.00 mg/kg vs iv 1.00 mg/kg, read-out: Oral bioavailability Fobs): 33.2%; AUC ([2]; po, ig, 5.00 mg/kg): 1.9 ± 0.565 µg·h/mL; AUC(0-inf) ([2]; po, ig, 5.00 mg/kg): 2.03 ± 0.529 µg·h/mL; Cmax ([2]; po, ig, 5.00 mg/kg): 0.433 ± 0.198 µg/mL
CN(C)c1cc2nn([C@H]3CC[C@H](CN4C[C@@H](F)[C@@H](n5cc6cc(C7CCC(=O)NC7=O)c(F)cc6n5)C4)CC3)cc2cc1NC(=O)c1cnn2cccnc12 (stereo partly drawn) [TM-240]	2.68	2.63 ± 0.172	2.67 ± 0.175	0.652 ± 0.032	29.9	7.99 ± 3.14	7.99 ± 3.12	0.976 ± 0.545	–
CN(C)c1cc2nn([C@H]3CC[C@H](CN4CCC(n5cc6c(F)cc(N7CCC(=O)NC7=O)cc6n5)CC4)CC3)cc2cc1NC(=O)c1cnn2cccnc12 [TM-174]	3.19	1.48 ± 0.167	1.7 ± 0.254	0.272 ± 0.0345	24.5	3.63 ± 1.5	4.16 ± 1.44	0.356 ± 0.201	PASI Score d 6 (IMQ psoriasis model; 3 mg/kg): 6.69 ± 1.07; ΔSkin Thickness Change (μm) d 6 (IMQ psoriasis model; 3 mg/kg): 58.10 ± 17.31 μm; PASI Score d 6 (IMQ psoriasis model; 10 mg/kg): 7.31 ± 1.87; ΔSkin Thickness Change (μm) d 6 (IMQ psoriasis model; 10 mg/kg): 59.29 ± 18.23 μm; PASI Score d 6 (IMQ psoriasis model; 30 mg/kg): 4.38 ± 1.24; ΔSkin Thickness Change (μm) d 6 (IMQ psoriasis model; 30 mg/kg): 43.81 ± 16.66 μm; DAI Score d 8 ([4]; 3 mpk): 3.57 ± 2.26; DAI Score d 8 ([4]; 10 mpk): 2.71 ± 1.39; DAI Score d 8 ([4]; 30 mpk): 2.71 ± 0.70
CN(C)c1cc2nn([C@H]3CC[C@H](CN4C[C@H](F)[C@@H](n5cc6cc(C7CCC(=O)NC7=O)c(F)cc6n5)C4)CC3)cc2cc1NC(=O)c1cnn2cccnc12 (stereo partly drawn) [TM-249]	4.37	2.28 ± 0.19	2.4 ± 0.354	0.613 ± 0.0398	38.8	8.61 ± 4	9.31 ± 4.68	0.814 ± 0.187	–
